Legend:
[1] = test system: Aspergillus nidulans 200092; test: MTS/MEN growth inhibition assay, OD490;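 also: fungal spore suspensions in 96-well plates with MTS/MEN indicator, absorbance read after 2 h and again after further development up to 24 h, controls containing medium only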
Protocol: Spores from a frozen stock of Aspergillus nidulans 200092 (at 1.63×10^7/ml) were diluted to 5×10^3/ml to yield 500 spores per well in yeast extract with glucose broth supplemented with lysine and uridine.
MEN was added at a ratio of 42 μl MEN per 12 ml of MTS. Each well received 25 μl indicator.
98 μl of the spore suspension was added to the wells of a 96 well plate. Control wells received media only. […] Plates were then incubated for 2 hours and then read at OD490. MTS/MEN was then allowed to develop for an additional period of time up to 24 hours and the plates was re-read.

A. nidulans 200092 = test: Spore germination with indicator/electron donor added at T0, viewed microscopically; format: cell-based; conditions: added at the same time as spores (T0), no viability at 48 hours
Protocol: Spores from a frozen stock of A. nidulans 200092 at 1.63×10^7/ml) were diluted to 5×10^3/ml to yield 500 spores per well in yeast extract with glucose broth supplemented with lysine and uridine.
Tetrazolium salts (listed in Table 1) were each dissolved to 1 mg/ml in phosphate-buffered saline (PBS) or water, aliquotted, and frozen. Electron coupling agents phenazine methosulfate (PMS; lot 194-03) and menadione (MEN; lot 170-95) were prepared at 5 mM in PBS and 10 mM in acetone, respectively. Cultures had no electron coupling reagent added, PMS (120 μl of PMS per 12 ml of tetrazolium salt) or MEN (42 μl per 12 ml of tetrazolium salt). Each well received 25 μl of indicator.
Indicator (with or without electron coupling reagent) was added at the same time as spores (T0), following ˜24 hours of incubation (T24), or following ˜48 hours of incubation (T48). Wells were viewed ˜2 hours post addition. NC denotes no color seen.
Microscopically, when compared to wells that had no indicator added or had PMS added, it was evident that the spores were present but had not germinated. At 48 hours, these same wells still had not shown any signs of viability.

[2] = Aspergillus nidulans, 200092, 2 h
[3] = Aspergillus nidulans, 200092, 24 h

Q: For `Clc1ccccc1C(c1ccccc1)(c1ccccc1)n1ccnc1` [Clotrimazole, clotrimazole], which inhibition at 0.0039 µg/mL [1, 2] is on record?
A: 15.8%

Q: What about the inhibition at 0.0078 µg/mL [1, 2] of the same compound?
A: 35.4%

Q: And the inhibition at 0.0156 µg/mL [1, 2]?
A: 26%

Q: And the inhibition at 0.0313 µg/mL [1, 2]?
A: 56.8%

Q: And the inhibition at 0.0625 µg/mL [1, 2]?
A: 86.5%

Q: And the inhibition at 0.125 µg/mL [1, 2]?
A: 94.6%

Q: And the inhibition at 0.25 µg/mL [1, 2]?
A: 93%

Q: And the inhibition at 0.5 µg/mL [1, 2]?
A: 93%

Q: And the inhibition at 1 µg/mL [1, 2]?
A: 94.5%

Q: And the inhibition at 2 µg/mL [1, 2]?
A: 93.4%

Q: And the inhibition at 4 µg/mL [1, 2]?
A: 95.8%

Q: And the inhibition at 8 µg/mL [1, 2]?
A: 94.4%

Q: What about the inhibition at 16 µg/mL [1, 2] of the same compound?
A: 94.4%

Q: What about the inhibition at 32 µg/mL [1, 2] of the same compound?
A: 91.5%

Q: And the inhibition at 64 µg/mL [1, 2]?
A: 86%

Q: And the inhibition at 0.0039 µg/mL [1, 3]?
A: 6.6%

Q: What about the inhibition at 0.0078 µg/mL [1, 3] of the same compound?
A: 48.5%

Q: What about the inhibition at 0.0156 µg/mL [1, 3] of the same compound?
A: 47.2%

Q: What about the inhibition at 0.0313 µg/mL [1, 3] of the same compound?
A: 70.1%

Q: And the inhibition at 0.0625 µg/mL [1, 3]?
A: 77%

Q: What about the inhibition at 0.125 µg/mL [1, 3] of the same compound?
A: 93.6%

Q: And the inhibition at 0.25 µg/mL [1, 3]?
A: 91.6%

Q: What about the inhibition at 0.5 µg/mL [1, 3] of the same compound?
A: 92%

Q: And the inhibition at 1 µg/mL [1, 3]?
A: 93.9%

Q: And the inhibition at 2 µg/mL [1, 3]?
A: 92.3%

Q: And the inhibition at 4 µg/mL [1, 3]?
A: 96.2%

Q: And the inhibition at 8 µg/mL [1, 3]?
A: 94.2%

Q: What about the inhibition at 16 µg/mL [1, 3] of the same compound?
A: 93.4%

Q: And the inhibition at 32 µg/mL [1, 3]?
A: 92.1%

Q: And the inhibition at 64 µg/mL [1, 3]?
A: 91.9%

Q: With `CC1=CC(=O)c2ccccc2C1=O` [MEN, menadione] as the compound, how does the “germination or growth of the spores” value (A. nidulans 200092) read?
A: inhibit germination or growth of the spores

Q: How did the IC50 [1, 2] turn out when `C[n+]1cc2c3c(ccc2c2ccc4cc5c(cc4c21)OCO5)OCO3` [Sanguinarine, sanguinarine] was run?
A: 1.42 µg/mL

Q: What about the inhibition at 0.0061 µg/mL [1, 2] of the same compound?
A: 16.2%

Q: What about the inhibition at 0.0122 µg/mL [1, 2] of the same compound?
A: -3.1%

Q: What about the inhibition at 0.0244 µg/mL [1, 2] of the same compound?
A: 15.6%

Q: What about the inhibition at 0.0488 µg/mL [1, 2] of the same compound?
A: 15.7%

Q: And the inhibition at 0.0977 µg/mL [1, 2]?
A: 42.9%

Q: What about the inhibition at 0.1953 µg/mL [1, 2] of the same compound?
A: 10.2%

Q: What about the inhibition at 0.3906 µg/mL [1, 2] of the same compound?
A: 33.8%

Q: What about the inhibition at 0.7813 µg/mL [1, 2] of the same compound?
A: 45%

Q: And the inhibition at 1.5625 µg/mL [1, 2]?
A: 49.6%

Q: And the inhibition at 3.125 µg/mL [1, 2]?
A: 50.8%

Q: And the inhibition at 6.25 µg/mL [1, 2]?
A: 86.9%

Q: And the inhibition at 12.5 µg/mL [1, 2]?
A: 89.4%

Q: What about the inhibition at 25 µg/mL [1, 2] of the same compound?
A: 88.4%

Q: And the inhibition at 50 µg/mL [1, 2]?
A: 77.3%

Q: And the inhibition at 100 µg/mL [1, 2]?
A: 53.3%

Q: And the inhibition at 200 µg/mL [1, 2]?
A: 7%

Q: And the IC50 [1, 3]?
A: 2.77 µg/mL

Q: And the inhibition at 0.0061 µg/mL [1, 3]?
A: 10.9%

Q: And the inhibition at 0.0122 µg/mL [1, 3]?
A: -1.7%

Q: What about the inhibition at 0.0244 µg/mL [1, 3] of the same compound?
A: 5.1%

Q: What about the inhibition at 0.0488 µg/mL [1, 3] of the same compound?
A: 7.9%

Q: What about the inhibition at 0.0977 µg/mL [1, 3] of the same compound?
A: 18.4%

Q: What about the inhibition at 0.1953 µg/mL [1, 3] of the same compound?
A: -2.4%

Q: And the inhibition at 0.3906 µg/mL [1, 3]?
A: 12.6%

Q: What about the inhibition at 0.7813 µg/mL [1, 3] of the same compound?
A: 19.7%

Q: And the inhibition at 1.5625 µg/mL [1, 3]?
A: 39.8%

Q: What about the inhibition at 3.125 µg/mL [1, 3] of the same compound?
A: 42.2%

Q: And the inhibition at 6.25 µg/mL [1, 3]?
A: 86.7%

Q: What about the inhibition at 12.5 µg/mL [1, 3] of the same compound?
A: 93.7%

Q: And the inhibition at 25 µg/mL [1, 3]?
A: 92.4%

Q: And the inhibition at 50 µg/mL [1, 3]?
A: 91.7%

Q: What about the inhibition at 100 µg/mL [1, 3] of the same compound?
A: 87.5%

Q: What about the inhibition at 200 µg/mL [1, 3] of the same compound?
A: 79.5%

Q: For `c1ccc(-c2nn(-c3ccccc3)[n+](-c3cccc4ccccc34)n2)cc1` [TV, Tetrazolium Violet], which “germination or growth of the spores” value (A. nidulans 200092) is on record?
A: inhibit germination or growth of the spores

Q: With `COc1cc(-c2ccc(-n3nc(-c4ccccc4)n[n+]3-c3ccccc3)c(OC)c2)ccc1-n1nc(-c2ccccc2)n[n+]1-c1ccccc1` [BT, Tetrazolium Blue Chloride] as the compound, how does the “germination or growth of the spores” value (A. nidulans 200092) read?
A: inhibit germination or growth of the spores

Q: For `O=[N+]([O-])c1ccc(-[n+]2nc(-c3ccccc3)nn2-c2ccc(I)cc2)cc1.[Cl-]` [INT, p-Iodonitrotetrazolium Violet], which “germination or growth of the spores” value (A. nidulans 200092) is on record?
A: inhibit germination or growth of the spores

Q: Which “germination or growth of the spores” value (A. nidulans 200092) does the source give for `COc1cc(-c2ccc(-[n+]3nc(-c4ccc([N+](=O)[O-])cc4)nn3-c3ccc([N+](=O)[O-])cc3)c(OC)c2)ccc1-[n+]1nc(-c2ccc([N+](=O)[O-])cc2)nn1-c1ccc([N+](=O)[O-])cc1.[Cl-].[Cl-]` [TNTB, Tetranitro Blue Tetrazolium] here?
A: inhibit germination or growth of the spores

Reference: patent publication US20020028479A1, “Methods for the detection of fungal growth” (priority 2000, published 2002)
